Measured values as given in ChEMBL document CHEMBL3885881, “DrugMatrix”.

Species: Rattus norvegicus
Assay: DrugMatrix - Regimen: Daily Repeat
Assay type: toxicity, organism-based, Sprague-Dawley
Set-up: regimen Daily Repeat, gender Male, age 6-8 weeks
Settings: in vivo, po, route oral GAVAGE, vehicle 100 % SALINE; for ABSOLUTE BASOPHIL / ABSOLUTE EOSINOPHIL / ABSOLUTE LYMPHOCYTE / ABSOLUTE MONOCYTE / ABSOLUTE SEGMENTED NEUTROPHIL / BASOPHIL / EOSINOPHIL / ERYTHROCYTE COUNT / HEMATOCRIT / HEMOGLOBIN / LEUKOCYTE COUNT / LYMPHOCYTE / MEAN CORPUSCULAR HEMOGLOBIN / MEAN CORPUSCULAR HEMOGLOBIN CONCENTRATION / MEAN CORPUSCULAR VOLUME / MONOCYTE / NEUTROPHIL / NUCLEATED RED BLOOD CELLS / PLATELET COUNT: tissue Blood; for ALANINE AMINOTRANSFERASE / ALBUMIN / ALKALINE PHOSPHATASE / ASPARTATE AMINOTRANSFERASE / BLOOD UREA NITROGEN / CARBON DIOXIDE / CHLORIDE / CHOLESTEROL / CREATINE PHOSPHOKINASE / CREATININE / GLUCOSE / LACTATE DEHYDROGENASE / LIPASE / PHOSPHORUS / POTASSIUM / SODIUM / TOTAL BILIRUBIN / TOTAL PROTEIN / URIC ACID: tissue Plasma
[1] = 59 mg/kg, 120 h, dose level Low, time 5 day
[2] = 400 mg/kg, 72 h, dose level High, time 3 day
[3] = 400 mg/kg, 120 h, dose level High, time 5 day

## NC(=O)NO [HYDROXYUREA]
[1]
  ABSOLUTE BASOPHIL: 0 CELLS/uL
  ABSOLUTE EOSINOPHIL: 40 CELLS/uL
  ABSOLUTE LYMPHOCYTE: 7014.67 CELLS/uL
  ABSOLUTE MONOCYTE: 87.67 CELLS/uL
  ABSOLUTE SEGMENTED NEUTROPHIL: 557.67 CELLS/uL
  BASOPHIL: 0%
  EOSINOPHIL: 0.67%
  ERYTHROCYTE COUNT: 5.35 x10E6/uL
  HEMATOCRIT: 34.53%
  HEMOGLOBIN: 13.4 G/DL
  LEUKOCYTE COUNT: 7.7 x10E3/uL
  LYMPHOCYTE: 90.67%
  MEAN CORPUSCULAR HEMOGLOBIN: 25.1 pg
  MEAN CORPUSCULAR HEMOGLOBIN CONCENTRATION: 38.83 G/DL
  MEAN CORPUSCULAR VOLUME: 64.63 fL
  MONOCYTE: 1%
  NEUTROPHIL: 7.67%
  NUCLEATED RED BLOOD CELLS: 0 /100WBC
  PLATELET COUNT: 1286 x10E3/uL
  ALANINE AMINOTRANSFERASE: 54 u/L
  ALBUMIN: 4.1 G/DL
  ALKALINE PHOSPHATASE: 381.33 u/L
  ASPARTATE AMINOTRANSFERASE: 80.33 u/L
  BLOOD UREA NITROGEN: 12.33 mg/dL
  CARBON DIOXIDE: 29.67 mmol/L
  CHLORIDE: 98 MEQ/L
  CHOLESTEROL: 64 mg/dL
  CREATINE PHOSPHOKINASE: 314.67 u/L
  CREATININE: 0.22 mg/dL
  GLUCOSE: 169.33 mg/dL
  LACTATE DEHYDROGENASE: 90.33 u/L
  LIPASE: 10.67 u/L
  PHOSPHORUS: 10.9 mg/dL
  POTASSIUM: 5.6 MEQ/L
  SODIUM: 143.13 MEQ/L
  TOTAL BILIRUBIN: 0.17 mg/dL
  TOTAL PROTEIN: 6.1 G/DL
  URIC ACID: 0.8 mg/dL
[2]
  ABSOLUTE BASOPHIL: 0 CELLS/uL
  ABSOLUTE EOSINOPHIL: 0 CELLS/uL
  ABSOLUTE LYMPHOCYTE: 4351 CELLS/uL
  ABSOLUTE MONOCYTE: 16 CELLS/uL
  ABSOLUTE SEGMENTED NEUTROPHIL: 133 CELLS/uL
  BASOPHIL: 0%
  EOSINOPHIL: 0%
  ERYTHROCYTE COUNT: 4.56 x10E6/uL
  HEMATOCRIT: 29.63%
  HEMOGLOBIN: 11.37 G/DL
  LEUKOCYTE COUNT: 4.5 x10E3/uL
  LYMPHOCYTE: 96.67%
  MEAN CORPUSCULAR HEMOGLOBIN: 24.93 pg
  MEAN CORPUSCULAR HEMOGLOBIN CONCENTRATION: 38.43 G/DL
  MEAN CORPUSCULAR VOLUME: 64.87 fL
  MONOCYTE: 0.33%
  NEUTROPHIL: 3%
  NUCLEATED RED BLOOD CELLS: 0 /100WBC
  PLATELET COUNT: 1033 x10E3/uL
  ALANINE AMINOTRANSFERASE: 39.67 u/L
  ALBUMIN: 3.97 G/DL
  ALKALINE PHOSPHATASE: 323.33 u/L
  ASPARTATE AMINOTRANSFERASE: 76 u/L
  BLOOD UREA NITROGEN: 10 mg/dL
  CARBON DIOXIDE: 30.33 mmol/L
  CHLORIDE: 100.67 MEQ/L
  CHOLESTEROL: 77.33 mg/dL
  CREATINE PHOSPHOKINASE: 221.33 u/L
  CREATININE: 0.2 mg/dL
  GLUCOSE: 154.67 mg/dL
  LACTATE DEHYDROGENASE: 79 u/L
  LIPASE: 9 u/L
  PHOSPHORUS: 10.53 mg/dL
  POTASSIUM: 5.6 MEQ/L
  SODIUM: 144.93 MEQ/L
  TOTAL BILIRUBIN: 0.1 mg/dL
  TOTAL PROTEIN: 5.93 G/DL
  URIC ACID: 0.53 mg/dL
[3]
  ABSOLUTE BASOPHIL: 0 CELLS/uL
  ABSOLUTE EOSINOPHIL: 0 CELLS/uL
  ABSOLUTE LYMPHOCYTE: 4141 CELLS/uL
  ABSOLUTE MONOCYTE: 8.33 CELLS/uL
  ABSOLUTE SEGMENTED NEUTROPHIL: 117.33 CELLS/uL
  BASOPHIL: 0%
  EOSINOPHIL: 0%
  ERYTHROCYTE COUNT: 4.75 x10E6/uL
  HEMATOCRIT: 30.23%
  HEMOGLOBIN: 11.9 G/DL
  LEUKOCYTE COUNT: 4.27 x10E3/uL
  LYMPHOCYTE: 97%
  MEAN CORPUSCULAR HEMOGLOBIN: 25.03 pg
  MEAN CORPUSCULAR HEMOGLOBIN CONCENTRATION: 39.37 G/DL
  MEAN CORPUSCULAR VOLUME: 63.63 fL
  MONOCYTE: 0.33%
  NEUTROPHIL: 2.67%
  NUCLEATED RED BLOOD CELLS: 0 /100WBC
  PLATELET COUNT: 955 x10E3/uL
  ALANINE AMINOTRANSFERASE: 47 u/L
  ALBUMIN: 3.97 G/DL
  ALKALINE PHOSPHATASE: 216.67 u/L
  ASPARTATE AMINOTRANSFERASE: 84.67 u/L
  BLOOD UREA NITROGEN: 11.33 mg/dL
  CARBON DIOXIDE: 28.67 mmol/L
  CHLORIDE: 100.67 MEQ/L
  CHOLESTEROL: 82 mg/dL
  CREATINE PHOSPHOKINASE: 362.67 u/L
  CREATININE: 0.1 mg/dL
  GLUCOSE: 158.67 mg/dL
  LACTATE DEHYDROGENASE: 74 u/L
  LIPASE: 8.67 u/L
  PHOSPHORUS: 10.1 mg/dL
  POTASSIUM: 5.3 MEQ/L
  SODIUM: 144.07 MEQ/L
  TOTAL BILIRUBIN: 0.1 mg/dL
  TOTAL PROTEIN: 5.87 G/DL
  URIC ACID: 0.47 mg/dL
